PubChem BioAssay AID489011 (The Scripps Research Institute Molecular Screening Center, 2010)
pIC50: −log10 of the molar value. Calls of active or inactive are those of the source.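 How the source made its calls: active means IC50 for blocking malaria parasite growth in red cells at or below 10 µM; inactive means the rest.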

Tested on: P. falciparum 3D7 in RBCs, 3H-hypoxanthine incorporation, 48 h
Experiment: P. falciparum blood-stage growth inhibition potency, late-stage follow-up, M18AAP inhibitor project, cell-based, radiolabel, RBCs, powder samples (AID 489011)

SMILES	IC50	pIC50
Oc1ccc(-c2csc(-c3ccccc3)n2)cc1O	> 25 µM (inactive)	
Br/C(C=Nn1cnnc1)=C\c1ccccc1	11 µM (inactive)	
Cc1cc(C)n2c(=S)[nH]nc2n1	> 25 µM (inactive)	
O=C(COc1ccccc1C(=O)N/N=C/c1ccc(O)c(O)c1)N/N=C/c1ccc(O)c(O)c1		5.22
Oc1ccc(CCNc2c3ccccc3nc3ccccc23)cc1O		> 5.80
Cc1cc(C)cc(C(=O)n2cnnc2N)c1		5.15
CCC(C)c1ccc(O)c(N)c1 (configuration not stated)		5.22
